What was measured:
ATM kinase = biological target: T1, ATM kinase (Homo sapiens, UniProt Q13315); test: Assay a) ATM cellular potency (pATM Ser1981 in X-ray irradiated HT29 cells); assay type: cell-based; settings: HT29 cells, 1 h compound, X-ray ~600 cGy, pATM Ser1981; may be geometric mean of several tests; read-out: Assay a) ATM Cell IC50
T1 construct: endogenous in cells; host or cells: HT29 cells (ECACC #85061109)
Description: The following assays were used to measure the effects of the compounds of the present invention: a) ATM cellular potency assay; b) PI3K cellular potency assay; c) mTOR cellular potency assay; d) ATR cellular potency assay. During the description of the assays, generally: • i. […] IC50 values were calculated using a smart fitting model in Genedata. […] Assay a): ATM Cellular Potency Rationale:
Most ATM molecules in the cell are rapidly phosphorylated on this site after doses of radiation as low as 0.5 Gy, and binding of a phosphospecific antibody is detectable after the introduction of only a few DNA double-strand breaks in the cell.
The rationale of the pATM assay is to identify inhibitors of ATM in cells. HT29 cells are incubated with test compounds for 1 hr prior to X-ray-irradiation. 1 h later the cells are fixed and stained for pATM (Ser1981). The fluorescence is read on the arrayscan imaging platform.
The following morning compounds of Formula (I) in 100% DMSO were added to assay plates by acoustic dispensing. After 1 h incubation at 37° C. and 5% CO2, plates (up to 6 at a time) were irradiated using the X-RAD 320 instrument (PXi) with equivalent to ˜600 cGy. Plates were returned to the incubator for a further 1 h. […] Then 20 μl of 0.1% Triton X100 in PBS was added and incubated for 20 minutes at r.t., to permeabalise cells. Then the plates were washed once with 50 μl/well PBS, using a Biotek EL405 plate washer.
After 1 h incubation at r.t., the plates were washed three times with 50 μl/well PBS, using a Biotek EL405 plate washer, and plates were sealed and kept in PBS at 4° C. until read. Plates were read using an ArrayScan VTI instrument, using an XF53 filter with 10× objective.

PI3K-α = PI3K-α (Homo sapiens, UniProt P42336); test: Assay c) PI3K cellular potency (phospho-Akt T308 ELISA in BT474 cells); assay type: cell-based; settings: BT474 cells, 2 h, phospho-AKT T308; may be geometric mean of several tests; read-out: Assay c) PI3Kα Cell IC50
Sequence of PI3K-α (P42336 whole entry): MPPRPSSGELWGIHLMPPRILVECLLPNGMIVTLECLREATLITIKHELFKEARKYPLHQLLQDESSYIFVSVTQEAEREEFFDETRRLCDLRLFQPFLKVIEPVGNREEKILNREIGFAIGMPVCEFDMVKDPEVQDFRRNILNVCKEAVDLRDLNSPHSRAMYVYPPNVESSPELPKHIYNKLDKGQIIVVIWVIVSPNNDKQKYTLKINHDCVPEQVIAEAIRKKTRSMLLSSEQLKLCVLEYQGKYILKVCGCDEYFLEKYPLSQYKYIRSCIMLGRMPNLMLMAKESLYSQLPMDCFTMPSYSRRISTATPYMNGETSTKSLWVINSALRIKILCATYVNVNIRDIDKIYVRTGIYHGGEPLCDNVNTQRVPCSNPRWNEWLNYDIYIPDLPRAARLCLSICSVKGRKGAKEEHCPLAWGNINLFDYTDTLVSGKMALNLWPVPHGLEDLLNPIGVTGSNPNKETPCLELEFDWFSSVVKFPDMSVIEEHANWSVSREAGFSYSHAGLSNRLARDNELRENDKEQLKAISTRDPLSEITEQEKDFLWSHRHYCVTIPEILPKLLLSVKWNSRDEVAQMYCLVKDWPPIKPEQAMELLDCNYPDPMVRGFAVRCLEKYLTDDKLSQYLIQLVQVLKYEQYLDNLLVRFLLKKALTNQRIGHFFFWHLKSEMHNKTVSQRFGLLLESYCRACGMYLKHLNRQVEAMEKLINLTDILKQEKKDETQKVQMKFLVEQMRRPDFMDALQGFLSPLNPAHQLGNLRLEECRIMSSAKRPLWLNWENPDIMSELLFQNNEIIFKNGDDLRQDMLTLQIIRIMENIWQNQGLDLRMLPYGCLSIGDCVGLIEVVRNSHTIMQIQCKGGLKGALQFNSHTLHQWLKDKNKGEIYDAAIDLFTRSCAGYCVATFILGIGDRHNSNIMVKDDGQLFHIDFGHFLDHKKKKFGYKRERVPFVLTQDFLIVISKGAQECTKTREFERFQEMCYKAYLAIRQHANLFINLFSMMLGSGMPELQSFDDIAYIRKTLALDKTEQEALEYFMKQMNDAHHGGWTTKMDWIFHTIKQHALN
From the text: Assay c): PI3K Cellular Potency
This assay was used to measure PI3K-α inhibition in cells. PDK1 was identified as the upstream activation loop kinase of protein kinase B (Akt 1), which is essential for the activation of PKB. Activation of the lipid kinase phosphoinositide 3 kinase (PI3K) is critical for the activation of PKB by PDK1.
Following ligand stimulation of receptor tyrosine kinases, PI3K is activated, which converts PIP2 to PIP3, which is bound by the PH domain of PDK1 resulting in recruitment of PDK1 to the plasma membrane where it phosphorylates AKT at Thr308 in the activation loop.
The aim of this cell-based mode of action assay is to identify compounds that inhibit PDK activity or recruitment of PDK1 to membrane by inhibiting PI3K activity. Phosphorylation of phospho-Akt (T308) in BT474c cells following treatment with compounds for 2 h is a direct measure of PDK1 and indirect measure of PI3K activity.
BT474 cells (human breast ductal carcinoma, ATCC HTB-20) were seeded into black 384 well plates (Costar, #3712) at a density of 5600 cells/well in DMEM containing 10% FBS and 1% glutamine and allowed to adhere overnight.
The following morning compounds in 100% DMSO were added to assay plates by acoustic dispensing. After a 2 h incubation at 37° C. and 5% CO2, the medium was aspirated and the cells were lysed with a buffer containing 25 mM Tris, 3 mM EDTA, 3 mM EGTA, 50 mM sodium fluoride, 2 mM Sodium orthovanadate, 0.27M sucrose, 10 mM β-glycerophosphate, 5 mM sodium pyrophosphate, 0.5% Triton X-100 and complete protease inhibitor cocktail tablets (Roche #04 693 116 001, used 1 tab per 50 ml lysis buffer).
After 20 minutes, the cell lysates were transferred into ELISA plates (Greiner #781077) which had been pre-coated with an anti total-AKT antibody in PBS buffer and non-specific binding was blocked with 1% BSA in PBS containing 0.05% Tween 20. Plates were incubated over night at 4° C. The next day the plates were washed with PBS buffer containing 0.05% Tween 20 and further incubated with a mouse monoclonal anti-phospho AKT T308 for 2 h. Plates were washed again as above before addition of a horse anti-mouse-HRP conjugated secondary antibody. Following a 2 h incubation at r.t., plates were washed and QuantaBlu substrate working solution (Thermo Scientific #15169, prepared according to provider's instructions) was added to each well. The developed fluorescent product was stopped after 60 minutes by addition of Stop solution to the wells. Plates were read using a Tecan Safire plate reader using 325 nm excitation and 420 nm emission wavelengths respectively. Except where specified, reagents contained in the Path Scan Phospho AKT (Thr308) sandwich ELISA kit from Cell Signalling (#7144) were used in this ELISA assay.

T1 sequence (Q13315 whole entry): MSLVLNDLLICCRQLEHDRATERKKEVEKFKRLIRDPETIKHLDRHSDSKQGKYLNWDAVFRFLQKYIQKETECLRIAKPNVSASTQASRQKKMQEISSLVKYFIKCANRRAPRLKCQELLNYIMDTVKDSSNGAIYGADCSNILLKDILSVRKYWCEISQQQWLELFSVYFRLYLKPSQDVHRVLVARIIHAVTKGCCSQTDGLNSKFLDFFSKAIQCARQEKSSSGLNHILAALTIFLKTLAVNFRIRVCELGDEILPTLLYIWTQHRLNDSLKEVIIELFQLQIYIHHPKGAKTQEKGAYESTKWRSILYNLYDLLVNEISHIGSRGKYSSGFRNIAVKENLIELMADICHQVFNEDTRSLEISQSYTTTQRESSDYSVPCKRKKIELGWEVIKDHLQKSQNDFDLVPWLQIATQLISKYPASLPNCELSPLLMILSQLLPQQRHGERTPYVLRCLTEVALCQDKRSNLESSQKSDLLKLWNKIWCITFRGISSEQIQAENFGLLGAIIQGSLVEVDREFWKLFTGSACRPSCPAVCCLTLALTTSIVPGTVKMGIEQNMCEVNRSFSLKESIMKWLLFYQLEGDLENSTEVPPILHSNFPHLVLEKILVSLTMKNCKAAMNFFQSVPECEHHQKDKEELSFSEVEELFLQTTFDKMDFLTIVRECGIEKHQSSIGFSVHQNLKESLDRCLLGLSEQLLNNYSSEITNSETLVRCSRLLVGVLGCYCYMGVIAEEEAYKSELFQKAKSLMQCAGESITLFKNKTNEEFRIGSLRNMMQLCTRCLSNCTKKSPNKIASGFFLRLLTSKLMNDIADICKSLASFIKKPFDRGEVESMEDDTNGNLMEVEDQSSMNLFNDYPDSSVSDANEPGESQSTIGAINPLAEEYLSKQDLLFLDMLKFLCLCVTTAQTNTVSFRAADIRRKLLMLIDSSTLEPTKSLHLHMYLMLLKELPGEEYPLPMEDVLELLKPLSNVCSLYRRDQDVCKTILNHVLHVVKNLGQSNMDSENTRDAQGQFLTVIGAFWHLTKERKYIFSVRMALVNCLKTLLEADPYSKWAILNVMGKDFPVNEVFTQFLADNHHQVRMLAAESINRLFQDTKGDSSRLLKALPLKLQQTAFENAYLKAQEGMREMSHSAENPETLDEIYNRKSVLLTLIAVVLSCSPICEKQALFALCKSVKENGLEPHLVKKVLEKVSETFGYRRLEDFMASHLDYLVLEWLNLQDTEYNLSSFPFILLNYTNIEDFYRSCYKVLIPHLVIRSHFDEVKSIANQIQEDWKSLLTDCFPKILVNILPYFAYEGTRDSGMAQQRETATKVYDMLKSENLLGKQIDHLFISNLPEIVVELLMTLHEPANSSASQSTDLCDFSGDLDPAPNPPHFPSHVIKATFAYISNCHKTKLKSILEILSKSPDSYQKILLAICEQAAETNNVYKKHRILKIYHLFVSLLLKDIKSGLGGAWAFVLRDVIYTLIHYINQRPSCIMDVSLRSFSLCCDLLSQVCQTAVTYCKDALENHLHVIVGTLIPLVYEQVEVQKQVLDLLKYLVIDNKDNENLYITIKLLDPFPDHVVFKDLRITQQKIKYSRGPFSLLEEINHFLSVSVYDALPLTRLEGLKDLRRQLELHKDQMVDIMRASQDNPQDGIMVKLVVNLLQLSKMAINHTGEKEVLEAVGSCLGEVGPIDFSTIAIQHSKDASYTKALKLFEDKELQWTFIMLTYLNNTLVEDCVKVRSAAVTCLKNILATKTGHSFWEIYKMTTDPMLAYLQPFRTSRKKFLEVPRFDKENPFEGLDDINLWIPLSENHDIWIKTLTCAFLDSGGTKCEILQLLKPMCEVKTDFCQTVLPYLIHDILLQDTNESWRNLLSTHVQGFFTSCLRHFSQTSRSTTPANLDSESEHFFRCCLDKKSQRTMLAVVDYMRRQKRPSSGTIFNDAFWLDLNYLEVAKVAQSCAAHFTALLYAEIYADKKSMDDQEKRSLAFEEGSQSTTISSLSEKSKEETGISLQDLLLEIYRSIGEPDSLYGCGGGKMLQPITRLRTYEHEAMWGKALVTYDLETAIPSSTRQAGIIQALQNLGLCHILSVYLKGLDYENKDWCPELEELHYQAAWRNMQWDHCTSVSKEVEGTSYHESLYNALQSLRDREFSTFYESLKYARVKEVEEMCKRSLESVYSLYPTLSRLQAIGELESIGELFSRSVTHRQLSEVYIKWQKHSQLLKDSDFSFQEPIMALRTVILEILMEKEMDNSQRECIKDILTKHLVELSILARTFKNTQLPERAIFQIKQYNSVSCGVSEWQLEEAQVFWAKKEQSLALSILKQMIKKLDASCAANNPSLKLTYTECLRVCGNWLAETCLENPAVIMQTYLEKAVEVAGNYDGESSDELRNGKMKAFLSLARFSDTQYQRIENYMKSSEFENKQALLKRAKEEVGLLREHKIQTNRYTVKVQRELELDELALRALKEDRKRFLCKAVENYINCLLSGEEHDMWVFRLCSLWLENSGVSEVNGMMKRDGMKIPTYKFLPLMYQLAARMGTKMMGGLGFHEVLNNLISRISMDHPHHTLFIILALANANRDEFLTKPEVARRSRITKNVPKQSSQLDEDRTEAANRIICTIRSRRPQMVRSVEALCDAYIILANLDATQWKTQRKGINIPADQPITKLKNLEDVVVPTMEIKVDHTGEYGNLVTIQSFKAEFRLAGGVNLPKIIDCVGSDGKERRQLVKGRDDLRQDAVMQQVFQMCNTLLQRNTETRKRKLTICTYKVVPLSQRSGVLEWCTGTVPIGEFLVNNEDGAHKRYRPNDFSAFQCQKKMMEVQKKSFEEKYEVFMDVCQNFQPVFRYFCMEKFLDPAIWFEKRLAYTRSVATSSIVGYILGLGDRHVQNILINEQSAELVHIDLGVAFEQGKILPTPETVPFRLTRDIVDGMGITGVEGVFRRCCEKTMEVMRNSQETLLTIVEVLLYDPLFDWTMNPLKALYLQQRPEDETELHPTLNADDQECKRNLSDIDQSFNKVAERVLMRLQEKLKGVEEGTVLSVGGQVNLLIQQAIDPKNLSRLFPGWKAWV

SMILES	IC50 (ATM kinase)	IC50 (PI3K-α)
CC(C)n1c(=O)n(C)c2cnc3cc(F)c(-c4ccc(OCCCN5CCC5)nc4)cc3c21 [Example 4, 8-[6-[3-(azetidin-1-yl)propoxy]-3-pyridyl]-7-fluoro-1-isopropyl-3-methyl-imidazo[4,5-c]quinolin-2-one]	1.59 nM	4520 nM
CC(C)n1c(=O)n(C)c2cnc3cc(F)c(-c4ccc(OCCCN5CCC5)nc4F)cc3c21 [Example 16, 8-[6-[3-(azetidin-1-yl)propoxy]-2-fluoro-3-pyridyl]-7-fluoro-1-isopropyl-3-methyl-imidazo[4,5-c]quinolin-2-one]	2.29 nM	9080 nM
CC(C)n1c(=O)n(C)c2cnc3cc(F)c(-c4ccc(OCCCN5CCCC5)nc4F)cc3c21 [Example 13, 7-fluoro-8-[2-fluoro-6-(3-pyrrolidin-1-ylpropoxy)-3-pyridyl]-1-isopropyl-3-methyl-imidazo[4,5-c]quinolin-2-one]	1.32 nM	22900 nM
CC(C)n1c(=O)n(C)c2cnc3ccc(-c4ccc(OCCCN(C)C)nc4F)cc3c21 [Example 10, 8-[6-[3-(dimethylamino)propoxy]-2-fluoro-3-pyridyl]-1-isopropyl-3-methyl-imidazo[4,5-c]quinolin-2-one]	0.686 nM	6180 nM
CC(C)n1c(=O)n(C)c2cnc3ccc(-c4ccc(OCCCN(C)C)nc4)cc3c21 [Example 6, 8-[6-[3-(dimethylamino)propoxy]-3-pyridyl]-1-isopropyl-3-methyl-imidazo[4,5-c]quinolin-2-one]	0.398 nM	184 nM
CC(C)n1c(=O)n(C)c2cnc3cc(F)c(-c4ccc(OCCCN5CCCCC5)nc4)cc3c21 [Example 2, 7-Fluoro-1-isopropyl-3-methyl-8-[6-[3-(1-piperidyl)propoxy]-3-pyridyl]imidazo[4,5-c]quinolin-2-one]	0.787 nM	> 12000 nM
CC(C)n1c(=O)n(C)c2cnc3cc(F)c(-c4ccc(OCCC[N+]5([O-])CCCCC5)nc4)cc3c21 [Metabolite A, 7-Fluoro-1-isopropyl-3-methyl-8-[6-[3-(1-oxidopiperidin-1-ium-1-yl)propoxy]-3-pyridyl]imidazo[4,5-c]quinolin-2-one]	35 nM	27800 nM
CC(C)n1c(=O)[nH]c2cnc3cc(F)c(-c4ccc(OCCCN5CCCCC5)nc4)cc3c21 [Example 18, 7-Fluoro-1-isopropyl-8-[6-[3-(1-piperidyl)propoxy]-3-pyridyl]-3H-imidazo[4,5-c]quinolin-2-one]	3.14 nM	> 30000 nM
CC(C)n1c(=O)n(C)c2cnc3cc(F)c(-c4ccc(OCCCN5CCCCC5)nc4F)cc3c21 [Example 14, 7-fluoro-8-[2-fluoro-6-[3-(1-piperidyl)propoxy]-3-pyridyl]-1-isopropyl-3-methyl-imidazo[4,5-c]quinolin-2-one]	3.51 nM	> 30000 nM

Second part, the molecule after the results:

IC50 (ATM kinase)	IC50 (PI3K-α)	SMILES
0.824 nM	11400 nM	CC(C)n1c(=O)n(C)c2cnc3cc(F)c(-c4ccc(OCCCN5CCCC5)nc4)cc3c21 [Example 3, 7-Fluoro-1-isopropyl-3-methyl-8-[6-(3-pyrrolidin-1-ylpropoxy)-3-pyridyl]imidazo[4,5-c]quinolin-2-one]
< 0.453 nM	5750 nM	CC(C)n1c(=O)n(C)c2cnc3ccc(-c4ccc(OCCCN5CCCCC5)nc4F)cc3c21 [Example 9, 8-[2-Fluoro-6-[3-(1-piperidyl)propoxy]-3-pyridyl]-1-isopropyl-3-methyl-imidazo[4,5-c]quinolin-2-one]
0.698 nM	661 nM	CC(C)n1c(=O)n(C)c2cnc3ccc(-c4ccc(OCCCN5CCC5)nc4)cc3c21 [Example 8, 8-[6-[3-(Azetidin-1-yl)propoxy]-3-pyridyl]-1-isopropyl-3-methyl-imidazo[4,5-c]quinolin-2-one]
0.256 nM	222 nM	CC(C)n1c(=O)n(C)c2cnc3ccc(-c4ccc(OCCCN5CCCC5)nc4)cc3c21 [Example 7, 1-isopropyl-3-methyl-8-[6-(3-pyrrolidin-1-ylpropoxy)-3-pyridyl]imidazo[4,5-c]quinolin-2-one]
0.799 nM	2890 nM	CC(C)n1c(=O)n(C)c2cnc3ccc(-c4ccc(OCCCN5CCCC5)nc4F)cc3c21 [Example 12, 8-[2-fluoro-6-(3-pyrrolidin-1-ylpropoxy)-3-pyridyl]-1-isopropyl-3-methyl-imidazo[4,5-c]quinolin-2-one]
